Experimental data from article PMC4180036 (Clinical pharmacology and therapeutics, 2014).
Several values for one entry are separate records, joined by “and”; a condition that tells them apart may be missing. Equal entries are not always repeated. Where two headings read alike, the source gives them in different places.

Columns and labels:
[1] = in vivo
[2] = Population pharmacokinetic modeling and covariate analysis; format: in vivo, human; conditions: for IIV V1, inter-individual variability on volume of distribution / IIVCL, inter-individual variability on clearance / IOV CL, inter-occasion variability on clearance: expressed as variance; for θKa, first-order absorption rate constant: fixed value; for clearance / Vd: human, plasma, oral; for Vd: θV1, volume of distribution
[3] = other studies; cited from earlier work
[4] = tested on: African Americans with NSCLC; assay: Treatment-related toxicities; format: in vivo, human; conditions: for Dermatologic, other than rash: Any, grade 1–3: erythema, hyperpigmentation, pruritus, xerodermia; for Nausea, grade 1–3: only one grade three nausea was recorded
clinical = conditions: human, in vivo
NSCLC patients = conditions: 150 mg erlotinib, cited from earlier work
NSCLC = assay: Efficacy: disease control rate at 3 months; format: in vivo, human
[5] = Base model (n=26), Bootstrap median (95% CI)
[6] = Base model (n=26), Estimate (CV %)
[7] = Covariate model (LBM, n=26), Bootstrap median (95% CI)
[8] = Covariate model (LBM, n=26), Estimate (CV %)

C#Cc1cccc(Nc2ncnc3cc(OCCOC)c(OCCO)cc23)c1 [OSI-420]
OSI-420 detection in plasma [1]: ƛ OSI-420 was undetectable in one patient treated on Arm B
measurable OSI-420 in plasma [1]: no measureable OSI-420
θCLM, metabolite clearance [2, 5]: 23.60 (4.76, 47.91) L/h
θV2, metabolite volume of distribution [2, 5]: 7.67 (0.09, 21.91) L
θCLM, metabolite clearance [2, 6]: 21.5 (8.9) L/h
θV2, metabolite volume of distribution [2, 6]: 7.18 (62.8) L
θCLM, metabolite clearance [2, 7]: 27.80 (4.04, 55.60) L/h
θV2, metabolite volume of distribution [2, 7]: 8.99 (0.04, 26.11) L
θCLM, metabolite clearance [2, 8]: 32.6 (10.4) L/h
θV2, metabolite volume of distribution [2, 8]: 11.6 (12.1) L

C#Cc1cccc(Nc2ncnc3cc(OCCOC)c(OCCOC)cc23)c1 [erlotinib]
AUC0–24 ([1]; human): 17.4 ± 8.9 mg·h/L
Tmax ([1]; human): 2.5 (0–10) hrs
range of population estimates for CL/F [3]: 3.29 to 5.82 L/h
AST elevation ([4]; All, n=55): 4 (7) no. of pts (%)
Anorexia, grade 1–2 ([4]; All, n=55): 14 (25) no. of pts (%)
Anorexia, grade 3 ([4]; All, n=55): 3 (5) no. of pts (%)
Any grade 3+ toxicity ([4]; All, n=55): 11 (20) no. of pts (%)
Any grade 4/5 toxicity ([4]; All, n=55): 1 (2) no. of pts (%)
Dehydration, grade 1–2 ([4]; All, n=55): 1 (2) no. of pts (%)
Dehydration, grade 3 ([4]; All, n=55): 2 (4) no. of pts (%)
Diarrhea: Any grade ([4]; All, n=55): 16 (29) no. of pts (%)
Diarrhea: Grade 1 ([4]; All, n=55): 14 (25) no. of pts (%)
Diarrhea: Grade 2 ([4]; All, n=55): 2 (4) no. of pts (%)
Diarrhea: Grade 3+ ([4]; All, n=55): 0 no. of pts (%)
Hyperbilirubinemia ([4]; All, n=55): 1 (2) no. of pts (%)
Pneumonitis, grade 3 ([4]; All, n=55): 1 (2) no. of pts (%)
Rash, maximum grade: Any grade ([4]; All, n=55): 38 (69) no. of pts (%)
Rash, maximum grade: Grade 1 ([4]; All, n=55): 22 (40) no. of pts (%)
Rash, maximum grade: Grade 2 ([4]; All, n=55): 12 (22) no. of pts (%)
Rash, maximum grade: Grade 3 ([4]; All, n=55): 4 (7) no. of pts (%)
Xerostomia ([4]; All, n=55): 2 (4) no. of pts (%)
Dermatologic, other than rash: Any, grade 1–3 ([4]; All, n=55): 16 (29) no. of pts (%)
Nausea, grade 1–3 ([4]; All, n=55): 8 (15) no. of pts (%)
AST elevation ([4]; Arm A (fixed dose), n=28): 4 (14) no. of pts (%)
Anorexia, grade 1–2 ([4]; Arm A (fixed dose), n=28): 5 (18) no. of pts (%)
Anorexia, grade 3 ([4]; Arm A (fixed dose), n=28): 2 (7) no. of pts (%)
Any grade 3+ toxicity ([4]; Arm A (fixed dose), n=28): 5 (18) no. of pts (%)
Any grade 4/5 toxicity ([4]; Arm A (fixed dose), n=28): 1 (4) no. of pts (%)
Dehydration, grade 1–2 ([4]; Arm A (fixed dose), n=28): 0 no. of pts (%)
Dehydration, grade 3 ([4]; Arm A (fixed dose), n=28): 1 (4) no. of pts (%)
Diarrhea: Any grade ([4]; Arm A (fixed dose), n=28): 9 (32) no. of pts (%)
Diarrhea: Grade 1 ([4]; Arm A (fixed dose), n=28): 7 (25) no. of pts (%)
Diarrhea: Grade 2 ([4]; Arm A (fixed dose), n=28): 2 (7) no. of pts (%)
Diarrhea: Grade 3+ ([4]; Arm A (fixed dose), n=28): 0 no. of pts (%)
Hyperbilirubinemia ([4]; Arm A (fixed dose), n=28): 0 no. of pts (%)
Pneumonitis, grade 3 ([4]; Arm A (fixed dose), n=28): 1 (4) no. of pts (%)
Rash, maximum grade: Any grade ([4]; Arm A (fixed dose), n=28): 19 (68) no. of pts (%)
Rash, maximum grade: Grade 1 ([4]; Arm A (fixed dose), n=28): 12 (43) no. of pts (%)
Rash, maximum grade: Grade 2 ([4]; Arm A (fixed dose), n=28): 7 (25) no. of pts (%)
Rash, maximum grade: Grade 3 ([4]; Arm A (fixed dose), n=28): 0 no. of pts (%)
Xerostomia ([4]; Arm A (fixed dose), n=28): 0 no. of pts (%)
Dermatologic, other than rash: Any, grade 1–3 ([4]; Arm A (fixed dose), n=28): 7 (25) no. of pts (%)
Nausea, grade 1–3 ([4]; Arm A (fixed dose), n=28): 2 (7) no. of pts (%)
AST elevation ([4]; Arm B (dose adjusted), n=27): 0 no. of pts (%)
Anorexia, grade 1–2 ([4]; Arm B (dose adjusted), n=27): 9 (33) no. of pts (%)
Anorexia, grade 3 ([4]; Arm B (dose adjusted), n=27): 1 (4) no. of pts (%)
Any grade 3+ toxicity ([4]; Arm B (dose adjusted), n=27): 6 (22) no. of pts (%)
Any grade 4/5 toxicity ([4]; Arm B (dose adjusted), n=27): 0 no. of pts (%)
Dehydration, grade 1–2 ([4]; Arm B (dose adjusted), n=27): 1 (4) no. of pts (%)
Dehydration, grade 3 ([4]; Arm B (dose adjusted), n=27): 1 (4) no. of pts (%)
Diarrhea: Any grade ([4]; Arm B (dose adjusted), n=27): 7 (26) no. of pts (%)
Diarrhea: Grade 1 ([4]; Arm B (dose adjusted), n=27): 7 (26) no. of pts (%)
Diarrhea: Grade 2 ([4]; Arm B (dose adjusted), n=27): 0 no. of pts (%)
Diarrhea: Grade 3+ ([4]; Arm B (dose adjusted), n=27): 0 no. of pts (%)
Hyperbilirubinemia ([4]; Arm B (dose adjusted), n=27): 1 (4) no. of pts (%)
Pneumonitis, grade 3 ([4]; Arm B (dose adjusted), n=27): 0 no. of pts (%)
Rash, maximum grade: Any grade ([4]; Arm B (dose adjusted), n=27): 19 (70) no. of pts (%)
Rash, maximum grade: Grade 1 ([4]; Arm B (dose adjusted), n=27): 10 (37) no. of pts (%)
Rash, maximum grade: Grade 2 ([4]; Arm B (dose adjusted), n=27): 5 (19) no. of pts (%)
Rash, maximum grade: Grade 3 ([4]; Arm B (dose adjusted), n=27): 4 (15) no. of pts (%)
Xerostomia ([4]; Arm B (dose adjusted), n=27): 2 (7) no. of pts (%)
Dermatologic, other than rash: Any, grade 1–3 ([4]; Arm B (dose adjusted), n=27): 9 (33) no. of pts (%)
Nausea, grade 1–3 ([4]; Arm B (dose adjusted), n=27): 6 (22) no. of pts (%)
patients who experienced rash during the first cycle ([4]; Arm B, of the 27 enrolled patients): 18 patients
diarrhea, % of patients ([4]; all 55 treated patients): 29%
dose reductions for toxicity ([4]; all 55 treated patients): no dose reductions for toxicity
nausea, % of patients ([4]; all 55 treated patients): 15%
patients who experienced any grade 3 toxicity ([4]; all 55 treated patients (11 patients)): 20%
AUC(0-t) (clinical; AUC0–24): 12200 ± 6200 ng·h/mL
Tmax (clinical; Tmax): 5 h
dose reductions due to adverse events (NSCLC patients; 81 Caucasian NSCLC patients): 14%
dose reductions due to adverse events (NSCLC patients; 1242 Asian NSCLC patients): 23%
θFM (fraction of erlotinib converted to OSI-420, FMET=1/1+exp(FM)) [2, 5]: 1.22 (0.47, 3.33)
IIV V1, inter-individual variability on volume of distribution [2, 5]: 0.90 (0.40, 1.33)
IIVCL, inter-individual variability on clearance [2, 5]: 0.24 (0.005, 0.44)
IOV CL, inter-occasion variability on clearance [2, 5]: 0.58 (0.29, 0.89)
θFM (fraction of erlotinib converted to OSI-420, FMET=1/1+exp(FM)) [2, 6]: 1.41 (12.8)
IIV V1, inter-individual variability on volume of distribution [2, 6]: 0.92 (50.5)
IIVCL, inter-individual variability on clearance [2, 6]: 0.06 (80.8)
IOV CL, inter-occasion variability on clearance [2, 6]: 0.38 (55.5)
θKa, first-order absorption rate constant ([2]; Base model (n=26)): 1.04 h⁻¹
θFM (fraction of erlotinib converted to OSI-420, FMET=1/1+exp(FM)) [2, 7]: 1.03 (0.23, 3.49)
θLBM, lean body mass covariate term [2, 7]: 1.75 (0.69, 3.08)
IIV V1, inter-individual variability on volume of distribution [2, 7]: 0.92 (0.43, 1.37)
IIVCL, inter-individual variability on clearance [2, 7]: 0.13 and 0.13 (0.001, 0.35)
IOV CL, inter-occasion variability on clearance [2, 7]: 0.51 (0.15, 0.85)
θFM (fraction of erlotinib converted to OSI-420, FMET=1/1+exp(FM)) [2, 8]: 0.88 (26.4)
θLBM, lean body mass covariate term [2, 8]: 1.71 (27.8)
IIV V1, inter-individual variability on volume of distribution [2, 8]: 0.95 (50.7)
IIVCL, inter-individual variability on clearance [2, 8]: 0.02 (127.1)
IOV CL, inter-occasion variability on clearance [2, 8]: 0.30 (67.9)
θKa, first-order absorption rate constant ([2]; Covariate model (LBM, n=26)): 1.04 h⁻¹
clearance ([2]; both, θCL, erlotinib clearance, Base model (n=26), Bootstrap median (95% CI)): 104 mL/min
clearance ([2]; both, θCL, erlotinib clearance, Base model (n=26), Estimate (CV %)): 104 mL/min
clearance ([2]; both, θCL, erlotinib clearance, Covariate model (LBM, n=26), Bootstrap median (95% CI)): 106 mL/min
clearance ([2]; both, θCL, erlotinib clearance, Covariate model (LBM, n=26), Estimate (CV %)): 107 mL/min
Vd ([2]; both, Base model (n=26), Bootstrap median (95% CI)): 275 L
Vd ([2]; both, Base model (n=26), Estimate (CV %)): 284 L
Vd ([2]; both, Covariate model (LBM, n=26), Estimate (CV %)): 283 L
clearance ([2]; estimated erlotinib clearance from nonlinear mixed-effects modeling, this study): 104 mL/min
PD (NSCLC; All, n=52 evaluable patients): 40 (78) Number of patients (%)
PR (NSCLC; All, n=52 evaluable patients): 1 (2) Number of patients (%)
1 year progression free rate (NSCLC; All, n=55 treated patients): 7%
1 year survival rate (NSCLC; All, n=55 treated patients): 28%
Survival, Median (NSCLC; All, n=55 treated patients): 5.3 months
Survival, Range (NSCLC; All, n=55 treated patients): 0.9–42.8 months
TTP, Median (95% CI) (NSCLC; All, n=55 treated patients): 2.6 (1.9– 2.8) months
TTP, Range (NSCLC; All, n=55 treated patients): 0.3–20.2 months
DCR at 3 months (NSCLC; Arm A, n=26 evaluable patients): 6 (23) Number of patients (%)
PD (NSCLC; Arm A, n=26 evaluable patients): 20 (77) Number of patients (%)
PR (NSCLC; Arm A, n=26 evaluable patients): 1 (4) Number of patients (%)
1 year progression free rate (NSCLC; Arm A, n=28): 10%
1 year survival rate (NSCLC; Arm A, n=28): 30%
Survival, Median (NSCLC; Arm A, n=28): 5.3 months
Survival, Range (NSCLC; Arm A, n=28): 0.9–37.4 months
TTP, Median (95% CI) (NSCLC; Arm A, n=28): 2.8 (2.5–3.1) months
TTP, Range (NSCLC; Arm A, n=28): 0.6–14.4 months
DCR at 3 months (NSCLC; Arm B, n=26 evaluable patients): 6 (23) Number of patients (%)
PD (NSCLC; Arm B, n=26 evaluable patients): 20 (77) Number of patients (%)
PR (NSCLC; Arm B, n=26 evaluable patients): 0 Number of patients (%)
1 year progression free rate (NSCLC; Arm B, n=27): 4%
1 year survival rate (NSCLC; Arm B, n=27): 26%
Survival, Median (NSCLC; Arm B, n=27): 5.2 months
Survival, Range (NSCLC; Arm B, n=27): 1.3–42.8 months
TTP, Median (95% CI) (NSCLC; Arm B, n=27): 2.4 (1.5–2.7) months
TTP, Range (NSCLC; Arm B, n=27): 0.3–20.2 months
